# US20090227606A1, “Methods for Preventing or Treating Acute and Chronic Pain” (priority 2006, published 2009)
# “Also recorded” adds a separate entry of the source.
# Legend:
# GLT-1 = test: Western blot of ipsilateral lumbar spinal cord, GLT-1 protein; format: in vivo, rat; conditions: day 12 post-transection
# Procedure: Tissue was collected from 4-5 rats/group on postoperative days 4 or 12. In order to obtain both mRNA and protein from the same tissue sample, the L5 region of the spinal cord (ipsilateral to the injury), was isolated and placed in PBS supplemented with protease inhibitor cocktail (1:1000, Sigma Chemical Co., St. Louis, Mo.) and RNase inhibitor (0.75 U/μL Ambion, Austin, Tex.). Samples were sonicated in five one-second bursts at half-maximal power, centrifuged at 6500 rpm for 15 minutes at 4° C. Protein-containing supernatants were collected and stored at −80° C. until further processing by Western blot analysis. The pellet was treated with TRIzol reagent (Invitrogen, Carlsbad, Calif.) for the extraction of total RNA according to the manufacturer's specifications.
# Protein obtained from L5 lumbar spinal cord was quantified using the Lowry method (DC assay, Bio-Rad, Hercules, Calif.). Forty micrograms of protein and standard protein markers were subjected to SDS polyacrylamide gel electrophoresis (7.5% gel, Bio-Rad, Hercules, Calif.) and id transferred to polyvinylidene difluoride (PVDF, Bio-Rad, Hercules, Calif.) filters. Nonspecific binding was blocked by incubation with 5% milk/PBS-T at room temperature for 1 hour followed by incubation overnight at 4° C. with monoclonal guinea pig anti-GLT-1 or guinea pig anti-GLAST (1:2500, Chemicon). […]
# [1] = tested on: L5 spinal nerve transected mice; test: Mechanical allodynia after L5 spinal nerve transection in eGFP-GLT-1/DsRed-GLAST transgenic mice; format: in vivo, mouse; conditions: for first day on which inhibition of mechanical allodynia was evident: 10 mg/kg i.p. daily
# Procedure: In addition to studies using a rat model of pain for examining the role of glutamate transporters in the therapeutic response (analgesic) of propentofylline treatment, studies were also performed in a double transgenic reporter mouse line that expressed eGFP-GLT-1/DsRed-GLAST. Use of the transgenic mouse model further defined the effect of propentofylline on glutamate transporters, GLT-1 and GLAST. The animals were injected intraperitoneally with 10 mg/kg propentofylline in sterile saline or saline vehicle alone (n=5 to 8 per group). The first injections were administered one hour prior to L5 spinal nerve transection and continued daily in the evening (between 5 and 7 PM) until day 12 post-transection. Mice received either an L5 spinal nerve transection or sham surgery on day 0. The development of mechanical allodynia was monitored on days 1, 3, 5, 7, 9 and 12 as described for rats previously. The monitoring was performed in the morning at approximately 15 hours post-propentofylline or saline injection. Mice were transcardially perfused on day 12 post-transection, spinal cords were removed, and the tissue was processed for immunohistochemistry.
# Transgenic mice on a C57B1/6 background were created according to the methods previously described (Regan et al. 2006. J. Neuroscience, in press). Briefly, in order to determine where in the central nervous system GLAST is expressed, transgenic mice were created using a bacterial artificial chromosome containing the GLAST gene plus 18 kb of DNA upstream of the first exon and 60 kb downstream of the last exon. DsRed cDNA was inserted into the first exon to allow expression of DsRed instead of GLAST when the promoter is active. Similarly, in order to investigate the distribution of GLT-1, transgenic mice expressing GLT-1 with eGFP running from the promoter were also created. These two types of transgenic mice were crossed and the resultant double transgenic eGFP-GLT-1/DsRed-GLAST mice were used in the experiments at 8 to 10 weeks of age.
# cAMP = cAMP levels in treated astrocytes, radio-receptor competition assay; format: cell-based, rat; conditions: days 3 and 7
# Procedure: Subsequently, cells were harvested and boiled for 3 minutes followed by high-speed (8,000×g) centrifugation. Fifty microliters of the resultant supernatant (total of 300 μl) was used to determine cAMP levels in the competition assay. cAMP levels were measured using a radio-receptor competition assay. In brief, [^3H] cAMP was used in competition for a cAMP binding protein (PKA) against known concentrations of non-radiolabeled cAMP, followed by determination of the unknowns. The reaction was allowed to proceed for 2 hours at 4° C. Charcoal was used to remove excess unbound cAMP. Finally, samples were counted in 5 ml Liquiscint™ (National Diagnostics, Atlanta, Ga.).
structure (smiles),measurement,setting,value
CCCn1cnc2c1c(=O)n(CCCCC(C)=O)c(=O)n2C [propentofylline],GLT-1 protein compared to L5 transection alone,GLT-1,reversed with propentofylline treatment; also recorded: significantly elevated
same,first day on which inhibition of mechanical allodynia was evident,[1]; 0.008 g filament,3 days
same,mechanical allodynia (0.008 g and 0.02 g von Frey filaments),"[1]; 10 mg/kg intraperitoneally daily, from one hour prior to transection",significant decrease in mechanical allodynia; also recorded: robustly inhibited the development of mechanical allodynia in mice; also recorded: remained similar to the sham control mice at every time point for both filaments
same,first day on which inhibition of mechanical allodynia was evident,[1]; 0.02 g filament,1 days
same,relative cAMP/db-cAMP levels,cAMP,did not lead to elevation in cAMP at 3 or 7 days; also recorded: did not enhance cAMP activity
